Measurements as given in publication PMC4311969 (Journal of the American Chemical Society, 2015).
Values joined by “and” are separate entries in the source; they are usually repeats but may differ in a detail not shown here. Equal entries are not always repeated. Structures can show the parent of a compound that is named as a salt. Where two headings read alike, the source gives them in different places. One block for each molecule: values may come before it.

Key:
[1] = molecular target: T1, yeast orotidine monophosphate decarboxylase (ScOMPDC) (Saccharomyces cerevisiae, UniProt P03962, C155S); experiment: Oxydianion activation of ScOMPDC-catalyzed decarboxylation of EO; assay type: biochemical
T1 sequence (P03962 1-267 C155S): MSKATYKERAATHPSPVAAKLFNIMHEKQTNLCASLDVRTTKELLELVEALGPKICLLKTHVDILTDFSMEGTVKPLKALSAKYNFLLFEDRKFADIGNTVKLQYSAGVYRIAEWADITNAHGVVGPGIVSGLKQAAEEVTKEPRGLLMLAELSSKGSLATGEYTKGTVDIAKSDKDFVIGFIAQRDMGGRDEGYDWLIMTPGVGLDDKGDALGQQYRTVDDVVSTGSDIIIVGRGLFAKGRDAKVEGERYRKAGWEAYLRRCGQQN

[2] = molecular target: T1, yeast orotidine monophosphate decarboxylase (ScOMPDC); conditions: cited from earlier work; for intrinsic oxydianion binding energy (ΔG^‡): ScOMPDC-catalyzed decarboxylation of EO
[3] = molecular target: T2, human liver glycerol 3-phosphate dehydrogenase (hlGPDH) (Homo sapiens, UniProt P21695); experiment: Oxydianion activation of hlGPDH-catalyzed reduction of GA by NADH; assay type: biochemical; conditions: for RT ln(K^‡)X, intrinsic Gibbs dianion binding free energy: hlGPDH-catalyzed reduction of GA
T2 sequence (P21695 1-349): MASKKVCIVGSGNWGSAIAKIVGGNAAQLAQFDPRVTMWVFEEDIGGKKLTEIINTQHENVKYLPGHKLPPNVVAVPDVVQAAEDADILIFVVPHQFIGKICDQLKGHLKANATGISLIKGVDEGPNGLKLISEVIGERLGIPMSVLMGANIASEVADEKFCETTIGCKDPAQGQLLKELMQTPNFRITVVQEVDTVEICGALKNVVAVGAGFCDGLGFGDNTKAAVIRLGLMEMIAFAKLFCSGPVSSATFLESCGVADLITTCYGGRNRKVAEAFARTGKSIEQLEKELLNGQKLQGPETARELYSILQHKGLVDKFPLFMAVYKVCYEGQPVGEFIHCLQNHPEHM

[4] = molecular target: T3, yeast triosephosphate isomerase (ScTIM) (Saccharomyces cerevisiae, UniProt P00942); experiment: Oxydianion activation of ScTIM-catalyzed reactions of [1-13C]-GA in D2O; assay type: biochemical; conditions: for RT ln(K^‡)X, intrinsic Gibbs dianion binding free energy: [1-^13C]-GA in D2O; for RT ln(K^‡)X, intrinsic Gibbs dianion binding free energy / Kd: 25 °C; for Kd: read-out: KX, dissociation constant for release of the oxydianion from ScTIM, 20 mM [1-^13C]-GA in D2O, pD 7.0 (20 mM imidazole), I = 0.1 (NaCl), fit to eq 3
T3 sequence (P00942 1-248): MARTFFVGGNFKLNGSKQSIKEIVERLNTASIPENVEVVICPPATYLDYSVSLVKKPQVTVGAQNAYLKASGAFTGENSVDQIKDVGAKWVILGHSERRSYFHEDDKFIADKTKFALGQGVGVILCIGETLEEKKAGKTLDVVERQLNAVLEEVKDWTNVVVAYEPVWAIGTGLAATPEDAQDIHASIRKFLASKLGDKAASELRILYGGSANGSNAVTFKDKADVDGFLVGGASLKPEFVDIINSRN

[5] = molecular target: T4, human liver GPDH (hlGPDH) (Homo sapiens, UniProt P21695); assay type: biochemical; conditions: identical plots at 0.10 or 0.20 mM NADH; printed ≪
T4 sequence (P21695 1-349): T2 sequence (P21695 1-349)

ScOMPDC = conditions: cited from earlier work
[6] = pH 7.5 (10 mM TEA), 25 °C, 0.2 mM NADH, I = 0.12 (NaCl)

SMILES: O=C(O)c1cc(=O)n([C@@H]2OC[C@@H](O)[C@H]2O)c(=O)[nH]1 [EO, 1-(β-D-erythrofuranosyl)orotic acid]
k′cat, turnover of the complex between enzyme and substrate pieces ([1]; EO + HPO3^2–, calculated using published (kcat/Km)E·HPi and Kd (ref 10)): ≈ 160 ^f s^–1
Kd ([2]; read-out: Kd of truncated substrate, substrate pieces, EO + HPO3^2–): 100 mM and ~100 mM

SMILES: O=[As](O)(O)O [HOAsO3^2–]
intrinsic oxydianion binding energy (ΔG^‡) [2]: no activation detected

SMILES: O=[PH](O)O [HPO3^2–, phosphite dianion]
intrinsic dianion binding energy (given without sign) ([4]; ScTIM): 6.3 kcal/mol
RT ln(K^‡)X, intrinsic Gibbs dianion binding free energy ([4]; ScTIM): –6.3 kcal/mol
RT ln(K^‡)X, intrinsic Gibbs dianion binding free energy ([4]; ScTIM, listed as phosphite dianion): −6.3 kcal/mol
ratio of (kcat/Km)E·X/KX to (kcat/Km)E ([4]; ScTIM-catalyzed isomerization, substrate pieces): 4.4 × 10^4 M^–1
Kd [4]: 18 ± 3 mM
RT ln(K^‡)X, intrinsic Gibbs dianion binding free energy ([3]; 25 °C): –7.5 kcal/mol
RT ln(K^‡)X, intrinsic Gibbs dianion binding free energy ([3]; 25 °C, listed as phosphite dianion): −7.5 kcal/mol
(kcat)E·X, first-order rate constant for turnover of the Michaelis complex [3, 6]: 5.5 ± 0.3 s^–1
Kd ([3]; read-out: KX, dissociation constant for release of the oxydianion from the binary or ternary enzyme complex, pH 7.5 (10 mM TEA), 25 °C, 0.2 mM NADH, I = 0.12 (NaCl)): 70 ± 4 mM
intrinsic dianion binding energy (given without sign) ([1]; ScOMPDC): 7.7 kcal/mol
ratio of (kcat/Km)E·X/KX to (kcat/Km)E ([1]; yeast OMPDC-catalyzed decarboxylation, substrate pieces): 4.4 × 10^5 M^–1
intrinsic oxydianion binding energy (ΔG^‡) [2]: -7.7 kcal/mol

SMILES: O=C(O)c1cc(=O)[nH]c(=O)n1[C@@H]1O[C@H](COP(=O)(O)O)[C@@H](O)[C@H]1O [OMP, Orotidine 5′-monophosphate]
kcat, turnover of whole substrate (ScOMPDC): 16 s^–1

SMILES: O=S(O)O [SO3^2–]
intrinsic oxydianion binding energy (ΔG^‡) [2]: -8.3 kcal/mol

Second part, led by results:

k′cat, turnover of the complex between enzyme and substrate pieces ([3]; GA + HPO3^2–, estimated as [(kcat/Km)E·HPi]Kd): 5.5 s^–1
kcat, unactivated reduction of GA ([3]; no dianion, 0.05 mM hlGPDH, pH 7.5, 25 °C, 0.2 mM NADH, I = 0.12 (NaCl)): 3.1 × 10^–4 s^–1
KGA, unactivated reduction of GA ([3]; no dianion, carbonyl form of GA, pH 7.5, 25 °C, 0.2 mM NADH, I = 0.12 (NaCl)): 6.2 mM
Kd ([3]; read-out: Kd of truncated substrate, substrate pieces, GA + HPO3^2–): 5 mM
SMILES: O=CCO [GA, glycolaldehyde]

RT ln(K^‡)X, intrinsic Gibbs dianion binding free energy ([3]; 25 °C): –4.9 kcal/mol
(kcat)E·X, first-order rate constant for turnover of the Michaelis complex [3, 6]: 0.032 ± 0.002 s^–1
SMILES: O=P(O)(O)O [HOPO3^2–, phosphate]
intrinsic oxydianion binding energy (ΔG^‡) [2]: -3.0 kcal/mol

Km [5]: < 100 µM
SMILES: NC(=O)C1=CN([C@@H]2O[C@H](COP(=O)(O)OP(=O)(O)OC[C@H]3O[C@@H](n4cnc5c(N)ncnc54)[C@H](O)[C@@H]3O)[C@@H](O)[C@H]2O)C=CC1 [NADH]

Kd [4]: 7 ± 1 mM
(kcat)E·X, first-order rate constant for turnover of the Michaelis complex [3, 6]: 0.0190 ± 0.002 s^–1
SMILES: O=S(O)(O)=S [S2O3^2–, thiosulfate dianion]
intrinsic oxydianion binding energy (ΔG^‡) [2]: -4.6 kcal/mol

RT ln(K^‡)X, intrinsic Gibbs dianion binding free energy ([3]; 25 °C): –5.9 kcal/mol
(kcat)E·X, first-order rate constant for turnover of the Michaelis complex [3, 6]: 0.360 ± 0.040 s^–1
SMILES: O=S(=O)(O)O [SO4^2–, sulfate]
intrinsic oxydianion binding energy (ΔG^‡) [2]: -4.5 kcal/mol
